Results from patent publication US20230172914A1, “BIOMARKER-BASED THERAPEUTIC COMPOSITION” (WELLMARKER BIO CO., LTD., priority 2019, published 2023).

What was measured:
[1] = tested on: KM12C cell line (active RON/RON mutant (Δ160)) tumor; assay: Tumor growth inhibition in animal model transplanted with KM12C (Experimental Example 10); type: in vivo, BALB/c nude mice
Protocol: 5-Week-old female BALB/c nude mice were purchased and acclimatized for 1 week. Then, human-derived colon cancer cell line KM12C (1.5×10^6 cells/mice) (cell line expressing active RON/RON mutant (Δ160)) was diluted in PBS, and injected subcutaneously (100 μl) into the right dorsal side of the mice. Comparative Examples 1 and Example 18 were orally administered when the tumor reached a size of about 100 mm^3. The drug was administered once a day for 2 weeks, and tumor size and body weight were measured twice a week. […] In addition, after completion of the drug administration, the experimental animals were euthanized, and then the tumors were extracted and weighed.
In addition, a portion of the extracted tumor tissue was fixed with 10% formalin, and then a paraffin block was produced therefrom. Then, changes in expression of each protein were checked through immunochemical staining. As a result, it was identified that in the group having received Example 18, expression of the active RON and p-ERK decreases, whereas expression of cleaved caspase 3 is induced (FIG. 11). Tumor tissues were collected from the vehicle group and the 5 mpk (mg/kg) treatment group, and changes in protein expression were compared through Western blotting.

KM12C cell line tumor = assay: Effective dose concentration in animal model transplanted with KM12C; type: in vivo, BALB/c nude mice; conditions: once a day for 2 weeks
Protocol: (§1) 5-Week-old female BALB/c nude mice were purchased and acclimatized for 1 week. Then, human-derived colon cancer cell line KM12C (1.5×10^6 cells/mice) was diluted in PBS, and injected subcutaneously (100 μl) into the right dorsal side of the mice. Example 18 was orally administered at respective doses when the tumor reached a size of about 100 mm^3. The drug was administered once a day for 2 weeks, and tumor size and body weight were measured twice a week to perform comparative analysis. After completion of the drug administration, the experimental animals were euthanized, and then the tumors were extracted and weighed to perform comparative analysis.

[2] = tested on: colon cancer patient-derived cancer tissue (RON mutant: Δ160); assay: Efficacy in animal model transplanted with colon cancer patient tissue, 50 mpk; type: in vivo, BALB/c nude mice; conditions: 50 mpk oral, daily for 4 weeks
Protocol: as §1, with “5-week-old” for “5-Week-old”, “Then,” for “Then, human-derived”, “patient-derived cancer tissue” for “cell line KM12C (1.5×10^6 cells/mice)”, “transplanted” for “diluted in PBS, and injected subcutaneously (100 μl)”, “administered” for “administered at respective doses”, “4” for “2”
As a result, it was identifiable that tumor growth is inhibited in a case where Example 18 is administered to an animal model (RON mutant: Δ160) into which tumor cells in colon cancer patients have been transplanted. The drug was orally administered on a daily basis, and the dose used was 50 mpk. As a result of drug administration for 4 weeks, it was identified that tumor growth is inhibited by 80% or more (FIG. 18). In addition, after completion of the drug administration, the tumor tissues were extracted and weighed to perform comparative analysis. […] The lower pictures of FIG. 19 show tumors extracted from representative individuals of the respective groups.

[3] = tested on: colon cancer patient-derived cell line in which RON is not expressed; assay: Cell death in colon cancer patient-derived cell line, active RON negative (immunofluorescence); type: cell-based, human; conditions: 5 ug, 48 hours, KRAS normal
Protocol: The following condition and methods were used to perform the present experiment. […] Then, the respective cell lines were seeded at 5×10^5 cells onto 24-well plates, in which one sterile 12 mmΦ microscope cover glass was placed on each well, and incubated. The respective colon cancer patient-derived cell lines under incubation were subjected to treatment with Example 18 and Comparative Example 1, respectively, at 5 ug, and then incubated for 48 hours. Each incubated plate was washed twice with PBS, and then fixed with 100% Me-OH at room temperature for 5 minutes. The Me-OH was removed, and washing with PBS was performed three times for 5 minutes each. Then, 100 ul of 0.1% Triton X-100 (in PBS) was dispensed thereinto and permeabilization was allowed to occur for 5 minutes. Washing with PBS was performed three times for 5 minutes each, and then PBS was added thereto to prevent drying. Parafilm was attached to the 24-well plate cover, and then PBS-T (PBS+0.1% Tween 20) containing 3% BSA was dropped by 20 μl onto the parafilm. […] Then, washing with PBS-T (PBS+0.1% Tween 20) was performed twice, and a fluorescence microscope was used to identify the staining. […] Then, the cover glass was placed thereon, and a fluorescence microscope was used to take a fluorescence image.

[4] = 5 mpk (mg/kg) treatment group vs vehicle

For `CCOc1ccn(-c2ccc(F)cc2)c(=O)c1C(=O)Nc1ccc(Oc2ccnc3cc(-c4ccc(CN5CCOCC5)cn4)sc23)c(F)c1.Cl` [Example 18, 4-ethoxy-N-[3-fluoro-4-({2-[5-(morpholinomethyl)pyridin-2-yl]thieno[3,2-b]pyridine-7-yl}oxy)phenyl]-1-(4-fluorophenyl)-2-oxo-1,2-dihydropyridine-3-carboxamide hydrochloride], the “active RON expression level in tumor tissue (Western blotting)” value [1, 4] was “decreased expression level”, the “cleaved caspase 3 expression level in tumor tissue (Western blotting)” value [1, 4] was “increased expression level” and the “expression of cleaved caspase 3 in tumor tissue (immunochemical staining)” value ([1]; extracted tumor tissue) was “induced”. For the same molecule, the “expression of the active RON and p-ERK in tumor tissue (immunochemical staining)” value ([1]; extracted tumor tissue) was “decreases”, the “change in mouse body weight” value ([1]; oral, once a day for 2 weeks) was “no change in mouse body weight” and the “tumor growth inhibition efficacy (tumor size)” value ([1]; oral, once a day for 2 weeks) was “tumor growth inhibition efficacy with drug administration was observed”. For the same molecule, the “tumor weight compared with the vehicle group” value ([1]; oral, once a day for 2 weeks) was “decreased tumor weight was observed”, the tumor growth (KM12C cell line tumor; oral at respective doses) was “inhibited in a concentration-dependent manner” and the effective dose concentration (KM12C cell line tumor; oral) was 5.214 mpk. The “tumor growth inhibition (extracted tumor weight) compared with the vehicle” value [2] was “about 83%”, the “tumor growth inhibition (tumor size)” value [2] was at least 80% and the “reactivity to drug treatment (cell death)” value [3] was “no reactivity”.
